Experiments:
Aspergillus niger lipase = Aspergillus niger lipase catalyzed hydrolysis of HMB esters; format: biochemical; details: for extent of ester hydrolysis (in words): Aspergillus niger lipase, RPLC; for HMB/HMB-ester ratio for Aspergillus niger lipase catalyzed hydrolysis: ester 1 mM, lipase 120 mg, pH 7.2, approx. 25° C., 24 hours
Procedure: In one lipase mediated hydrolysis, HMB-methyl ester (1 mM) was added to a 40 mL reaction vial along with water (12 mL), a 0.1 M phosphate buffer with a pH of 7.2 (2 mL) and Aspergillus niger (120 mg).
(§1) The non-enzymatic hydrolysis and the lipase mediated hydrolysis reactions were each carried out at a constant temperature of approximately 25° C. with constant stirring over the course of a 24 hour period. During the course of reaction pH of the reaction mixture was maintained at 7.2. After the reaction was complete, the reaction solvents were removed from the reaction mixture with a rotary evaporator.
(§2) After each of the hydrolysis reactions, the dry hydrolysis reaction product containing the α-hydroxy acid of HMB was dissolved in ethanol (10 mL), a sample of the reaction product solution (1 mL) was taken and diluted with additional ethanol (9 mL) and the further diluted solution was filtered through a filter having a pore size of 2 μm (Model manufactured by Millipore Corp. of Bedford, Mass.). The filtered extract was then introduced into the liquid chromatograph and the free acid and residual ester were separated on a C-8 reverse phase liquid chromatography column of the type described above.
(§3) Ethanol was removed from the remaining product mixture by rotary evaporation and the α-hydroxy acid product was re-dissolved in ethyl acetate (5 mL). The solution containing the α-hydroxy acid product was transferred to a 15 mL centrifuge tube to which 1 M sodium bicarbonate (6 mL) was added after which the centrifuge tube was shaken for a period of about five minutes, thus forming an ethyl acetate layer containing HMB-methyl ester and a sodium bicarbonate layer containing D- and L-enantiomers of the α-hydroxy acid, HMB. These layers were then separated with a centrifuge and each of the separated layers were brought to near dryness with a rotary evaporator and the residue from the bicarbonate layer was dissolved in ethanol (5 mL) to form a solution which was filtered and analyzed for D- and L-enantiomers of HMB by chiral liquid chromatography in accordance with the method set forth below.
(§4) The dry residue from the ethyl acetate layer containing HMB-methyl ester was hydrolyzed with 6N HCl (2 mL) for a period of two hours to produce HMB which was solubilized in ethanol. The ethanol solutions were filtered and analyzed for D- and L-enantiomers of HMB by chiral liquid chromatography in accordance with the method set forth below.
(§5) Separation of the D- and L-forms of the α-hydroxy acid of HMB present in the sodium bicarbonate phase was carried out by liquid chromatography (LC) with a UV absorbance detector in tandem with electrospray ionization mass spectrometry in the negative mode (ESI(−)MS). […] The electrospray ionization mass spectrometer utilized was manufactured by Hitachi High Technologies (Model M-8000). The mobile phase composition consisted of 70% ammonium acetate buffer (pH 4, 30 mM) and 30% methanol. A macrocyclic antibiotic based column (Chirobiotic-TAG), manufactured by Advanced Separation Technologies, Inc., Whippany, N.J., was used for the chiral liquid chromatography.

[1] = target: T1, porcine pancreatic lipase (PPL) (Sus scrofa, UniProt P00591); test: PPL lipase catalyzed hydrolysis of HMB esters; format: biochemical; details: for extent of ester hydrolysis (in words): PPL, RPLC; for HMB/HMB-ester ratio for PPL lipase catalyzed hydrolysis: ester 1 mM, PPL 120 mg, pH 7.2, approx. 25° C., 24 hours; for Enantioselectivity of hydrolysis: Free Acid (L/D) / Enantioselectivity of hydrolysis: Ester (L/D): lipase PPL; for Enantioselectivity of hydrolysis: Free Acid (L/D): chiral LC of HMB from bicarbonate layer; for Enantioselectivity of hydrolysis: Ester (L/D): unhydrolyzed ester, chiral LC after 6N HCl hydrolysis
T1 sequence (P00591 1-450): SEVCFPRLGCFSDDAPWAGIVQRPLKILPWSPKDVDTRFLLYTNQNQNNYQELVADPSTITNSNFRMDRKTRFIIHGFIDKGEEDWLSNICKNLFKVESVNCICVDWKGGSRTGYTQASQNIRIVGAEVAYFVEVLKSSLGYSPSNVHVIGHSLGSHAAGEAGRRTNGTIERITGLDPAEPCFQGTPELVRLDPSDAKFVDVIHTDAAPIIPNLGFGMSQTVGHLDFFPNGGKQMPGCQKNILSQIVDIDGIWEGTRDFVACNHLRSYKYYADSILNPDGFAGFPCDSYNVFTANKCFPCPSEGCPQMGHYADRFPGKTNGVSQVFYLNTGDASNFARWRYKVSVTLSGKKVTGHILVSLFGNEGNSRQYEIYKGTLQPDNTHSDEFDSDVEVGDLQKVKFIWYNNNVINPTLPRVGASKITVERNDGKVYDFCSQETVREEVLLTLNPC
Procedure: In another lipase mediated hydrolysis, HMB-methyl ester (1 mM) was added to a 40 mL reaction vial along with water (12 mL), a 0.1 M phosphate buffer with a pH of 7.2 (2 mL) and PPL (120 mg).
as §1, §2, §3, §4, §5
As part of these investigations, HMB-butyl ester and HMB obtained from the hydrolysis were recovered from the reaction mixture through portioning in ethyl acetate and […] bicarbonate solution. The HMB acid was recovered from the bicarbonate solution; it was introduced into an enantioselective HPLC system. The recovered HMB-butyl ester was hydrolyzed with 6N HCl (chemically) and then introduced into the enantioselective HPLC system. Chromatograms of HMB enantiomers obtained after non-enzymatic and PPL catalyzed HMB-butyl ester hydrolysis are illustrated in FIGS. 7A-B respectively.

[2] = target: T2, Novo 435 (Candida antarctica) lipase (Moesziomyces antarcticus, UniProt P41365); test: Novo 435 (Candida antarctica) lipase catalyzed hydrolysis of HMB esters; format: biochemical; details: for extent of ester hydrolysis (in words): Novo 435, RPLC; for HMB/HMB-ester ratio for Novo 435 (Candida antarctica) lipase catalyzed hydrolysis: ester 1 mM, immobilized lipase 6 mg, pH 7.2, approx. 25° C., 24 hours
T2 construct: purchased Novo (only as part of the product name) 435 (also given as 438)
T2 sequence (P41365 26-342): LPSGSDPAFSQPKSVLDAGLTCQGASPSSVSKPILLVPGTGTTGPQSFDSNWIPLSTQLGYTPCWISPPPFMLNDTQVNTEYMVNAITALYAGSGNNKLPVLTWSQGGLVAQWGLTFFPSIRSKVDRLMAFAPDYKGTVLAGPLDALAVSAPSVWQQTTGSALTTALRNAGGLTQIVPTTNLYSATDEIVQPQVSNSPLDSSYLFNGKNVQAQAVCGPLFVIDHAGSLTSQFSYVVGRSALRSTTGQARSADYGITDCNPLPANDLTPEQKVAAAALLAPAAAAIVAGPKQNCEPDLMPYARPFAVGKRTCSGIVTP
Procedure: In another lipase mediated hydrolysis, HMB-methyl ester (1 mM) was added to a 40 mL reaction vial along with water (12 mL), a 0.1 M phosphate buffer with a pH of 7.2 (2 mL) which was contacted with an immobilized sample of Novo 438 (Candida antarctica) (6 mg).
as §1, §2

Candida rugosa lipase = Candida rugosa lipase catalyzed hydrolysis of HMB esters; format: biochemical; details: for extent of ester hydrolysis (in words): Candida rugosa lipase, RPLC; for HMB/HMB-ester ratio for Candida rugosa lipase catalyzed hydrolysis: ester 1 mM, lipase 120 mg, pH 7.2, approx. 25° C., 24 hours
Procedure: In another lipase mediated hydrolysis, HMB-methyl ester (1 mM) was added to a 40 mL reaction vial along with water (12 mL), a 0.1 M phosphate buffer with a pH of 7.2 (2 mL) and Candida rugosa (120 mg).
as §1, §2, §3, §4, §5

[3] = Non-enzymatic hydrolysis of HMB esters in phosphate buffer; format: physicochemical; details: for HMB/HMB-ester ratio for non-enzyme catalyzed hydrolysis: ester 1 mM, phosphate buffer pH 7.2, approx. 25° C., 24 hours
Procedure: To carry out the hydrolysis of the ester, HMB-methyl ester (1 mM) was added to a 40 mL reaction vial along with water (12 mL) and a 0.1 M phosphate buffer having a pH of 7.2 (2 mL). The reaction was carried out at a constant temperature of, approximately 25° C. and constant stirring over a period of 24 hours. During the course of the reaction, the pH of the reaction mixture was maintained at 7.2. After the reaction was complete, the reaction solvents were removed from the reaction mixture with a rotary evaporator.
as §1, §2, §3, §4, §5

immobilized PPL = target: T3, immobilized PPL (Sus scrofa, UniProt P00591); test: Hydrolysis of HMB propyl ester using gel-bound (alginate-immobilized) PPL beads; format: biochemical, porcine; details: after a run of 3 hrs
T3 sequence (P00591 1-450): T1 sequence (P00591 1-450)
Procedure: Sodium alginate (500 mg), gelatin (300 mg) and water (9 ml) are introduced into and mixed in a 50 ml conical flask. The mix is then left undisturbed for 1 hour, after which the flask and its contents are autoclaved (120° C., 15 min.). The contents are then cooled at room temperature under continuous stirring. After the contents have cooled down, PPL (100 mg) in water (1 ml) is added to the flask and the contents stirred for further 15-20 min. Then glutaraldehyde (300 μl) is added to the flask contents and the mixture stirred for another 15 min. These contents are added drop-wise from a distance of around 10 cm by forcing them through the hypodermic needle in a 0.18M calcium chloride solution (2°-3° C.) . The gel breads solidify immediately upon contact with the calcium chloride solution, and after 30 min. are solidified. The solidified gel beads are washed 3-4 times with water to remove any loose enzyme from the surface.
The immobilized enzyme catalyst beads as prepared in the manner described in Example 6 were placed in a conical flask. […]
Reversed phase chromatography method was used for all the chromatograms set forth in the drawings. […] The reaction was monitored at 220 nm and gradient elution for the mobile phases used was 0 to 55% solvent B in 30 min.

[4] = Hydrolysis of HMB propyl ester with alginate beads without enzymes (control); format: physicochemical; details: water, 37° C., 2 hours and 3.30 hours
Procedure: Reversed phase chromatography method was used for all the chromatograms set forth in the drawings. The mobile phases chosen were water +0.1% trifluroacetic acid (TFA) (solvent A) and acetonitrile +0.1% TFA (solvent B). The column was maintained at 30° C. The reaction was monitored at 220 nm and gradient elution for the mobile phases used was 0 to 55% solvent B in 30 min.
The hydrolysis of HMBP was also checked using alginate beads without enzymes(CONTROL). The gel beads were placed in a conical flask of water (20 ml) and HMB propyl ester (240 mg) were added to it. The mixture was thereafter maintained at a temperature of 37° C. The chromatograms of FIGS. 15A and 15B are obtained for the product formed, for the same time constraints as before.

SMILES	extent of ester hydrolysis (in words) (Aspergillus niger lipase)	HMB/HMB-ester ratio for Aspergillus niger lipase catalyzed hydrolysis (Aspergillus niger lipase)	extent of ester hydrolysis (in words) [1]	HMB/HMB-ester ratio for PPL lipase catalyzed hydrolysis [1]	extent of ester hydrolysis (in words) [2]	HMB/HMB-ester ratio for Novo 435 (Candida antarctica) lipase catalyzed hydrolysis [2]	extent of ester hydrolysis (in words) (Candida rugosa lipase)	HMB/HMB-ester ratio for Candida rugosa lipase catalyzed hydrolysis (Candida rugosa lipase)	HMB/HMB-ester ratio for non-enzyme catalyzed hydrolysis [3]	concentration of L-enantiomer relative to D-enantiomer of HMB obtained ([1]; PPL catalyzed hydrolysis, FIG. 7B)	Enantioselectivity of hydrolysis: Free Acid (L/D) [1]	Enantioselectivity of hydrolysis: Ester (L/D) [1]	ester hydrolyzed by non-enzymatic hydrolysis ([3]; FIG. 4A)	D- and L-HMB enantiomers obtained through chemical hydrolysis ([3]; non-enzymatic hydrolysis, FIG. 7A)	Enantioselectivity of hydrolysis: Free Acid (L/D) (Candida rugosa lipase; lipase Candida rugosa, chiral LC of HMB from bicarbonate layer)	Enantioselectivity of hydrolysis: Ester (L/D) (Candida rugosa lipase; lipase Candida rugosa, unhydrolyzed ester, chiral LC after 6N HCl hydrolysis)	conversion of ester to HMB acid (immobilized PPL) [%]	hydrolysis with alginate beads without enzymes [4]	Enantioselectivity of hydrolysis: Free Acid (L/D) (Aspergillus niger lipase; lipase Aspergillus niger, chiral LC of HMB from bicarbonate layer)	Enantioselectivity of hydrolysis: Ester (L/D) (Aspergillus niger lipase; lipase Aspergillus niger, unhydrolyzed ester, chiral LC after 6N HCl hydrolysis)
COC(=O)C(O)CCSC (centres unmarked) [HMB-methyl ester, HMB methyl ester]	partial	4.55	partial	2.53	near completion	128	near completion	62.37	1.45	–	–	–	–	–	–	–	–	–	–	–
CCCCOC(=O)C(O)CCSC (centres unmarked) [HMB-butyl ester, HMB butyl ester]	Essentially all	160.57	only partial	2.0	Essentially all	176.3	Essentially all	42.6	0.09	nearly four times	81/19	19/81	less than 1%	equal concentrations	–	–	–	–	–	–
CCOC(=O)C(O)CCSC (centres unmarked) [HMB-ethyl ester, HMB ethyl ester]	–	16.71	–	0.94	–	–	–	7.84	0.53	–	57/43	43/57	–	–	62/38	38/62	–	–	–	–
CCCOC(=O)C(O)CCSC (centres unmarked) [HMB-propyl ester, HMB propyl ester]	–	149.24	–	1.69	–	52.27	–	84.45	0.09	–	75/25	22/78	–	–	–	–	50	no hydrolysis	–	–
CSCCC(O)C(=O)OC(C)C (centres unmarked) [HMB-isopropyl ester, HMB isopropyl ester]	–	0.81	–	3.3	–	165	–	9.8	0.36	–	–	–	–	–	–	–	–	–	68/32	32/68
